Experimental data: patent US9968649B2, “Vasopressin formulations for use in treatment of hypotension” (Par Pharmaceutical, Inc., priority 2015, dated 2018)
“And” between values parts separate entries of the source, which are not always exact repeats. Equal values may be shown once. Read-outs that look alike come from different tables or passages of the source.

Assays:
[1] = cited from earlier work
[2] = Particulate matter (USP) of stored samples (Example 8); type: physicochemical; conditions: inverted
Method: (§1) Experiments were also conducted on the same samples above over the course of the experiments to measure the amount of individual impurities in the samples, pH of the samples, chlorobutanol content, particulate matter, antimicrobial effectiveness, and bacterial endotoxin levels (TABLES 25-42). (NR=no reading; ND=not determined; UI=unidentified impurity).

[3] = test system: patients with vasodilatory shock; conditions: cited from earlier work
[4] = test system: Chinese hamster ovary (CHO) cell; test: In vitro Chinese hamster ovary (CHO) cell chromosome aberration test; type: cell-based
[5] = type: physicochemical
[6] = pH of stored samples (Example 8); type: physicochemical; conditions: inverted
Method: as §1

NC(=O)CC[C@@H]1NC(=O)[C@H](Cc2ccccc2)NC(=O)[C@H](Cc2ccc(O)cc2)NC(=O)[C@@H](N)CSSC[C@@H](C(=O)N2CCC[C@H]2C(=O)N[C@@H](CCCN=C(N)N)C(=O)NCC(N)=O)NC(=O)[C@H](CC(N)=O)NC1=O [Vasopressin, Cyclo (1-6) L-Cysteinyl-L-Tyrosyl-L-Phenylalanyl-L-Glutaminyl-L-Asparaginyl-L-Cysteinyl-L-Prolyl-L-Arginyl-L-Glycinamide]
increase of clearance of vasopressin in pregnancy ([1]; at term): up to 5 fold
clearance of vasopressin in pregnancy ([1]; first trimester): only slightly increased
increase of clearance of vasopressin in pregnancy ([1]; third trimester): about 4 fold
Particulate Matter (USP) (≥10 μm) ([2]; 5° C., 1 month): 1 and 2
Particulate Matter (USP) (≥25 μm) ([2]; 5° C., 1 month): 0
Particulate Matter (USP) (≥10 μm) ([2]; 5° C., 2 months): 1
Particulate Matter (USP) (≥25 μm) ([2]; 5° C., 2 months): 0
Particulate Matter (USP) (≥10 μm) ([2]; 5° C., 3 months): 1 and 2
Particulate Matter (USP) (≥25 μm) ([2]; 5° C., 3 months): 0
Particulate Matter (USP) (≥10 μm) ([2]; 5° C., 6 months): 2 and 1
Particulate Matter (USP) (≥25 μm) ([2]; 5° C., 6 months): 0
Particulate Matter (USP) (≥25 μm) ([2]; 5° C., 9 months): 0
Particulate Matter (USP) (≥10 μm) ([2]; 5° C., 12 months): 2
Particulate Matter (USP) (≥25 μm) ([2]; 5° C., 12 months): 0
Particulate Matter (USP) (≥25 μm) ([2]; 5° C., 18 months): 0
Particulate Matter (USP) (≥25 μm) ([2]; 5° C., 24 months): 0
Particulate Matter (USP) (≥25 μm) ([2]; 5° C., Initial): 0
Particulate Matter (USP) (≥10 μm) ([2]; 40° C., 1 month): 1
Particulate Matter (USP) (≥25 μm) ([2]; 40° C., 1 month): 0
Particulate Matter (USP) (≥10 μm) ([2]; 40° C., 2 months): 1
Particulate Matter (USP) (≥25 μm) ([2]; 40° C., 2 months): 0
Particulate Matter (USP) (≥10 μm) ([2]; 40° C., 3 months): 1
Particulate Matter (USP) (≥25 μm) ([2]; 40° C., 3 months): 0
Particulate Matter (USP) (≥10 μm) ([2]; 40° C., Initial): 1
Particulate Matter (USP) (≥25 μm) ([2]; 40° C., Initial): 0
time for pressor effect to fade ([3]; after stopping the infusion): ≤ 20 min
time of peak pressor effect ([3]; infusion of exogenous vasopressin): ≤ 15 min
hemodynamic effect at therapeutic doses ([3]; patients with vasodilatory shock): increases systemic vascular resistance and mean arterial blood pressure
tachyphylaxis or tolerance to the pressor effect ([3]; patients): no evidence for tachyphylaxis or tolerance
CHO cell chromosome aberration test result [4]: negative
pH with lowest level of impurities within pH 3.6 to 3.8 ([5]; pH 3.6): 3.8
pH with lowest level of impurities within pH 3.7 to 3.8 ([5]; pH 3.7): 3.8
pH ([6]; 5° C., 1 month): 3.5 and 3.6
pH ([6]; 5° C., 2 months): 3.5 and 3.6
pH ([6]; 5° C., 3 months): 3.5 and 3.6
pH ([6]; 5° C., 6 months): 3.5 and 3.6
pH ([6]; 5° C., 9 months): 3.5 and 3.6
pH ([6]; 5° C., 12 months): 3.5 and 3.6
pH ([6]; 5° C., 18 months): 3.8 and 3.6 and 3.5
pH ([6]; 5° C., 24 months): 3.5 and 3.6
pH ([6]; 5° C., Initial): 3.5 and 3.6
pH ([6]; 40° C., 1 month): 3.3
pH ([6]; 40° C., 2 months): 3.2
pH ([6]; 40° C., 3 months): 3.1
pH ([6]; 40° C., Initial): 3.5
